Where a SMILES comes first, the peptide text is derived from it. Bridges are numbered along the chain shown (N, C = ends). [ ]: non-standard residue; d: D form. The star is where a group is joined. hPhe(3-Cl-4-CF3) = N[C@@H](CCc1ccc(C(F)(F)F)c(Cl)c1)C(=O)O; NPrPhe(4-CF3) = CCCN[C@@H](Cc1ccc(C(F)(F)F)cc1)C(=O)O; NMeGly(cPent) = CN[C@H](C(=O)O)C1CCCC1; Hyp = O=C(O)[C@@H]1C[C@@H](O)CN1; NMeD = CN[C@@H](CC(=O)O)C(=O)O; NMeL = CN[C@@H](CC(C)C)C(=O)O; Morpholide = C1CN(*)CCO1; Ac5c = NC1(C(=O)O)CCCC1; Aze = O=C(O)[C@@H]1CCN1; Sar = CNCC(=O)O
Tests used:
[1] = molecular target: GDP-bound HRAS wild-type protein (Homo sapiens, UniProt P01112); assay: Binding to HRAS by surface plasmon resonance (SPR), Single Cycle Kinetics; settings: SPR; for HRAS/KRAS (ratio of KD value with respect to HRAS to KD value with respect to KRAS) / HRAS/KRAS (ratio of KD value for HRAS to KD value for KRAS): GDP-bound HRAS wild-type vs GDP-bound KRAS wild-type
Sequence of GDP-bound HRAS wild-type protein (P01112 whole entry): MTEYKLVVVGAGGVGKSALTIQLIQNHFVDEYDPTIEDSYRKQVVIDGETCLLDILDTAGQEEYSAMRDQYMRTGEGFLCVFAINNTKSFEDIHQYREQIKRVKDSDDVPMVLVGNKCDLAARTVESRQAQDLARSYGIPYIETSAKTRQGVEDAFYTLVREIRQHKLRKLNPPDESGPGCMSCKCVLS

[2] = molecular target: GDP-bound NRAS wild-type protein (Homo sapiens, UniProt P01111); assay: Binding to NRAS by surface plasmon resonance (SPR), Single Cycle Kinetics; settings: SPR; for NRAS/KRAS (ratio of KD value with respect to NRAS to KD value with respect to KRAS) / NRAS/KRAS (ratio of KD value for NRAS to KD value for KRAS): GDP-bound NRAS wild-type vs GDP-bound KRAS wild-type
Sequence of GDP-bound NRAS wild-type protein (P01111 whole entry): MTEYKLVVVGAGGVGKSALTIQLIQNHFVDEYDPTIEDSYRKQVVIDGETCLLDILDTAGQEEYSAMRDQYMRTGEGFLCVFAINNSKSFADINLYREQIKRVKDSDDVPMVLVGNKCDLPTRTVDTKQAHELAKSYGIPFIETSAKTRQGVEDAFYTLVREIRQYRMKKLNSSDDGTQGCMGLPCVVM

Question: Which “HRAS/KRAS (ratio of KD value with respect to HRAS to KD value with respect to KRAS)” value ([1]; KD ratio) does the source give for `CCO[C@@H]1C[C@H]2C(=O)NC3(CCC3)C(=O)N(C)[C@@H](C3CCCC3)C(=O)N(C)[C@H](C(=O)N3CCOCC3)CC(=O)N(C)[C@@H](Cc3ccc(Cl)c(Cl)c3)C(=O)N[C@@H]([C@@H](C)CC)C(=O)N(C)CC(=O)N(C)[C@H]3CCCCCN(C3=O)[C@@H](Cc3ccc(F)cc3)C(=O)N(C)CC(=O)N[C@@H](CCc3cc(F)c(C(F)(F)F)c(F)c3)C(=O)N2C1` [PP1188] here?
Answer: B (a compound having 3 or more and less than 10 is denoted as B)

Question: What about the “NRAS/KRAS (ratio of KD value with respect to NRAS to KD value with respect to KRAS)” value ([2]; KD ratio) of the same compound?
Answer: B (a compound having 3 or more and less than 10 is denoted as B)

Question: Which “HRAS/KRAS (ratio of KD value for HRAS to KD value for KRAS)” value ([1]; KD ratio) does the source give for `CCO[C@@H]1C[C@H]2C(=O)N(C)C3(CCC3)C(=O)N(C)[C@@H](C3CCCC3)C(=O)N(C)[C@H](C(=O)N(C)C)CC(=O)N(C)[C@@H](CC(C)C)C(=O)N[C@@H]([C@@H](C)CC)C(=O)N(C)CC(=O)N(C)[C@H]3C/C=C\CCN(C3=O)[C@@H](Cc3ccc(C)cc3)C(=O)N(C)CC(=O)N[C@@H](CCc3cc(F)c(C(F)(F)F)c(F)c3)C(=O)N2C1` [PP1790] here?
Answer: B (a compound having 3 or more and less than 10 is denoted as B)

Question: What about the “NRAS/KRAS (ratio of KD value for NRAS to KD value for KRAS)” value ([2]; KD ratio) of the same compound?
Answer: A (a compound having 10 or more and less than 20 is denoted as A)

Question: Which results are given for `CC[C@H](C)[C@@H]1NC(=O)[C@H](CC2CC2)N(C)C(=O)C[C@@H](C(=O)N(C)C)N(C)C(=O)[C@H](C2CCCC2)N(C)C(=O)C2(CCC2)N(C)C(=O)[C@@H]2CCCN2C(=O)[C@H](CCc2cc(F)c(C(F)(F)F)c(F)c2)NC(=O)CN(C)C(=O)[C@H](Cc2ccc(C)cc2)N2CC/C=C\C[C@@H](C2=O)N(C)C(=O)[C@@H]2CCCN2C1=O` [PP1798]?
Answer: HRAS/KRAS (ratio of KD value for HRAS to KD value for KRAS) ([1]; KD ratio): B (a compound having 3 or more and less than 10 is denoted as B); NRAS/KRAS (ratio of KD value for NRAS to KD value for KRAS) ([2]; KD ratio): A (a compound having 10 or more and less than 20 is denoted as A)

Question: Which “HRAS/KRAS (ratio of KD value with respect to HRAS to KD value with respect to KRAS)” value [1] does the source give for `CCCN(C)C(=O)[C@@H]1CC(=O)N(C)[C@@H](COCC)C(=O)N[C@@H]([C@@H](C)CC)C(=O)N(C)CC(=O)N(C)[C@H]2C/C=C\CCN(C2=O)[C@@H](Cc2ccc(C(F)(F)F)cc2)C(=O)N(C)CC(=O)N[C@@H](CCc2cc(F)c(C(F)(F)F)c(F)c2)C(=O)N2C[C@@H](C)C[C@H]2C(=O)NC2(CC(C)(C)C2)C(=O)N(C)[C@@H](C2CCCC2)C(=O)N1C` [PP2041] here?
Answer: A (a compound having 10 or more and less than 20 is denoted as A)

Question: What about the “NRAS/KRAS (ratio of KD value with respect to NRAS to KD value with respect to KRAS)” value [2] of the same compound?
Answer: A (a compound having 10 or more and less than 20 is denoted as A)

Question: For `CCCN(C)C(=O)[C@@H]1CC(=O)N(C)[C@@H](CC)C(=O)N[C@@H]([C@@H](C)CC)C(=O)N(C)CC(=O)N(C)[C@H]2C/C=C\CCN(C2=O)[C@@H](Cc2ccc(C(F)(F)F)cc2)C(=O)N(C)CC(=O)N[C@@H](CCc2cc(F)c(C(F)(F)F)c(F)c2)C(=O)N2C[C@H](OCC)C[C@H]2C(=O)NC2(CC(F)(F)C2)C(=O)N(C)[C@@H](C2CCCC2)C(=O)N1C` [PP1732], which “HRAS/KRAS (ratio of KD value for HRAS to KD value for KRAS)” value ([1]; KD ratio) is on record?
Answer: A (a compound having 10 or more and less than 20 is denoted as A)

Question: What about the “NRAS/KRAS (ratio of KD value for NRAS to KD value for KRAS)” value ([2]; KD ratio) of the same compound?
Answer: AA (a compound having 20 or more is denoted as AA)

Question: With `CCO[C@@H]1C[C@H]2C(=O)NC3(CCC3)C(=O)N(C)[C@@H]([C@@H](C)CC)C(=O)N(C)[C@H](C(=O)N(C)C)CC(=O)N(C)[C@@H](CC)C(=O)N[C@@H]([C@@H](C)CC)C(=O)N(C)CC(=O)N(C)[C@H]3C/C=C\CCN(C3=O)[C@@H](Cc3ccc(C(F)(F)F)cc3)C(=O)N(C)CC(=O)N[C@@H](CCc3cc(F)c(C(F)(F)F)c(F)c3)C(=O)N2C1` [PP1087] as the compound, how does the “HRAS/KRAS (ratio of KD value with respect to HRAS to KD value with respect to KRAS)” value ([1]; KD ratio) read?
Answer: A (a compound having 10 or more and less than 20 is denoted as A)

Question: And the “NRAS/KRAS (ratio of KD value with respect to NRAS to KD value with respect to KRAS)” value ([2]; KD ratio)?
Answer: A (a compound having 10 or more and less than 20 is denoted as A)

Question: `CCCN1C(=O)[C@@H]2CCN2C(=O)CN(C)C(=O)[C@H]([C@@H](C)CC)NC(=O)[C@H](CC(C)C)N(C)C(=O)C[C@@H](C(=O)N2CCOCC2)N(C)C(=O)[C@H](C2CCCC2)N(C)C(=O)C2(CCCC2)NC(=O)[C@@H]2C[C@@H](OCC)CN2C(=O)[C@H](CCc2ccc(C(F)(F)F)c(Cl)c2)NC(=O)CN(C)C(=O)[C@@H]1Cc1ccc(C(F)(F)F)cc1` [PP0410] ([NMeL]I[Sar][Aze][NPrPhe(4-CF3)][Sar][hPhe(3-Cl-4-CF3)][Hyp](Et)[Ac5c][NMeGly(cPent)][NMeD]-Morpholide; lactam N-11) was tested. Which “HRAS/KRAS (ratio of KD value with respect to GDP-bound HRAS wild-type protein to KD value with respect to KRAS)” value [1] did it give?
Answer: B (a compound having 3 or more and less than 10 is denoted as B)

Question: And the “NRAS/KRAS (ratio of KD value with respect to GDP-bound NRAS wild-type protein to KD value with respect to KRAS)” value [2]?
Answer: C (A compound having a KD ratio of 0.1 or more and less than 3 is denoted as C)

Question: `CC[C@H](C)[C@@H]1NC(=O)[C@H](CC(C)C)N(C)C(=O)C[C@@H](C(=O)N2CCOCC2)N(C)C(=O)[C@H](C2CCCC2)N(C)C(=O)C2(COC2)NC(=O)[C@@H]2CCCN2C(=O)[C@H](CCc2cc(F)c(C(F)(F)F)c(F)c2)NC(=O)CN(C)C(=O)[C@H](Cc2ccc(C(F)(F)F)cc2)N2CCCC[C@@H](C2=O)N(C)C(=O)CN(C)C1=O` [PP0563] was tested. Which “HRAS/KRAS (ratio of KD value with respect to GDP-bound HRAS wild-type protein to KD value with respect to KRAS)” value [1] did it give?
Answer: B (a compound having 3 or more and less than 10 is denoted as B)

Question: What about the “NRAS/KRAS (ratio of KD value with respect to GDP-bound NRAS wild-type protein to KD value with respect to KRAS)” value [2] of the same compound?
Answer: B (a compound having 3 or more and less than 10 is denoted as B)
